“And” between values parts separate entries of the source, which are not always exact repeats. Equal values may be shown once.
Key:
[1] = target: T1, human islet GK isoform (Homo sapiens, UniProt P35557); experiment: Glucokinase Assay; assay type: biochemical
T1 construct: (His)6; made in house; host or cells: E. coli
T1 sequence (P35557 1-465): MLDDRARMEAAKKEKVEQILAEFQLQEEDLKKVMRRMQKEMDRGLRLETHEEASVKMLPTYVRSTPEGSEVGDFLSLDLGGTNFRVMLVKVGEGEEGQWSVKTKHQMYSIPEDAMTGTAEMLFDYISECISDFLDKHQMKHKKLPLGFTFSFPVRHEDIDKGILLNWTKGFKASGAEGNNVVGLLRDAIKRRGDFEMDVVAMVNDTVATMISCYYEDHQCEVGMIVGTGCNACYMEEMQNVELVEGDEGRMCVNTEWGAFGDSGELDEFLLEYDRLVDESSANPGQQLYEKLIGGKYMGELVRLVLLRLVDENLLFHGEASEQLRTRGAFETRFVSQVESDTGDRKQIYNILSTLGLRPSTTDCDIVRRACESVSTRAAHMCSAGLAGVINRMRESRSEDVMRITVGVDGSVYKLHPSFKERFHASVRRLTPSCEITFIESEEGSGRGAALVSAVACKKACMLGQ
Description: The human islet GK isoform is expressed in E. coli as (His)6-tagged fusion protein and purified with metal chelate affinity chromatography, see e.g. Tiedge et al., Biochem. Biophys. Acta 1337, 175-190, 1997. After purification the enzyme is stored in aliquots at concentration 0.8 mg/ml in 25 mM sodium phosphate, 150 mM sodium chloride, 100 mM imidazole, 1 mM dithiothreitol, 50% glycerol at −80° C. The assay is performed in flat bottom 96-well plates in a final incubation volume of 100 μL. The incubation mixture consists of 25 mM 4-(2-hydroxyethyl)-1-piperazineethanesulfonic acid (HEPES) (pH7.4), 50 mM potassiumchloride, 2.5 mM magnesiumchloride, 2 mM dithiothreitol, 4 U/ml glucose-6-phosphate dehydrogenase from Leuconostoc mesenteroides, 5 mM ATP, 1 mM NAD and a set concentration of glucose. Test compounds are dissolved in dimethylsulfoxide and then added to the reaction mixture giving the final dimethylsulfoxide concentration of 10%. The reaction is initiated by addition of 20 μL GK and run for 20 min at 37° C. The amount of formed NADH is measured as an increase in absorbance at 340 nm using a microplate reader. Absorbance values are used for EC50 calculations.

[2] = system: plasma glucose in male Wistar rats; experiment: Oral Glucose Tolerance Test (OGTT); assay type: in vivo, rat
Description: Male Wistar rats at a weight of 225-250 g, are kept on regular diet and with normal light cycle and conditions. For the study, rats are fasted overnight before their exact weights are measured, and are randomized into groups of similar weights (n=4 per group). The compound is suspended in a 1:1 mixture of solutol/ethanol in a bath sonicator (10% of total volume). The obtained suspension is then diluted with 9 volumes of 10% aqueous solutol solution, and the compound is dosed orally at 1, 3, 6, 10, 20, and 30 mg/kg orally. Rats are given a 2 g/kg oral glucose bolus 2 hours after compound administration. Blood is collected via tail bleed at 0, 15, 30, 60, 90 and 120 minutes post glucose administration. Collected blood is placed into ethylenediaminetetraacetic acid (EDTA) tubes at volume of 400 μL per sample, and the samples are kept on ice. Plasma is isolated and stored at −20° C. until samples are analyzed for glucose and compound exposure. Area under the plasma glucose curve (glucose AUC) is calculated for each group and the percentage decrease in the glucose AUC versus the control group is used as a measure of efficacy of the compound to decrease plasma glucose.

[3] = system: Rat insulinoma INS-1E cells; experiment: Glycolysis Assay; assay type: cell-based; settings: INS1-E cells, 8 mM glucose, n=4, read-out: mean EC50 of stimulation of glucose metabolism
Description: Rat insulinoma INS-1E cells are maintained at 37° C., 5% CO2, 95% humidity in 1640 medium supplemented with 11 mM glucose, 5% Fetal Bovine Serum, 50 μM 2-Mercaptoethanol, 1 mM pyruvate, 10 mM HEPES and antibiotics. Prior to assay, cells are trypsinized, pelleted by centrifugation and seeded into 96-well tissue culture assay plates at the density of 30,000 cells/well. Cells are allowed to attach and incubated for 48 hours at 37° C., 5% CO2. On the assay day, cells are washed with and incubated in 200 μL Earle's Balanced Salt Solution (EBSS) buffer supplemented with 0.1% Bovine Serum Albumin (BSA). After 30 minutes incubation, the buffer is removed and 100 μL EBSS buffer containing 0.1% BSA, 8 mM glucose and the compound is added to cells. Immediately after, 20 μL of CellTiter 96® AQueous One Solution Reagent is added to cells and cells are incubated at 37° C. for an additional hour. At the end of incubation absorbance at 490 nm is read. Absorbance values are used for EC50 calculations.

[4] = Blood Brain Barrier Permeability; assay type: in vivo, mouse; settings: male CF-1 mice, IV bolus 2.17 μmole/kg, five minutes post dose
Description: A stock compound solution is prepared in dimethylsulfoxide at 10 mM. A dose solution is then prepared at 1 mM by diluting 100 μL of the stock with 900 μL of propylene glycol. The dose is administered as an IV bolus (2.2 mL/kg) via the tail vein into six male CF-1 mice (approximately 23 g) for a target dose of 2.17 μmole/kg. Mice are euthanized using both CO2 and cervical dislocation. Three mice are sacrificed 5 minutes post dose and three 60 minutes post dose. Blood is collected from each animal via cardiac puncture, and plasma is prepared using sodium EDTA, transferred into polypropylene sample tubes and immediately frozen using dry ice. […]
MS/MS is effected using a Sciex API 4000 triple quadrupole mass spectrometer equipped with a turbo ion spray source. […] Column effluent is diverted to waste from 0-2.8 minutes and then directed into the mass spectrometer from 2.8-4.0 minutes MS/MS transitions monitored are 560/84. Quantitation of compound in test samples is achieved by comparing peak area values to a quadratic equation weighted 1/x^2 derived from the nominal concentrations of the calibration standards and their respective peak areas. Upper and Lower Limits of Quantitation are determined by the back calculated recoveries of calibration standards that exceeded +/−20% of theory. […]

Structure (SMILES): O=C(Nc1ncc(SCCN2CCCC2)s1)[C@]1(c2ccc(S(=O)(=O)C3CC3)cc2)C[C@H]1C1CCCCC1 [Example 1, (1R,2S)-2-Cyclohexyl-1-(4-cyclopropanesulfonyl-phenyl)-cyclopropanecarboxylic acid [5-(2-pyrrolidin-1-yl-ethylsulfanyl)-thiazol-2-yl]-amide]
- EC50 ([1]; 10 mM glucose, n=5, read-out: EC50 of GK activation): 42 ± 42 nM
- enzyme activity at lower glucose concentrations ([1]; lower glucose concentrations): increased the enzyme activity in a concentration dependent manner
- maximal lowering of glucose AUC versus the untreated control group ([2]; 30 mg/kg oral, 2 g/kg oral glucose bolus 2 hours after compound): 42%
- average compound concentration in plasma at which a 20% glucose AUC decrease occurs ([2]; interpolation of the data): 99 ng/ml and 179 nM
- compound dose corresponding to a 20% glucose AUC decrease ([2]; interpolation of the data, oral): 6.9 mg/kg
- effect on plasma glucose ([2]; oral 1-30 mg/kg, fasted and postprandial glucose levels): decreases plasma glucose in a dose-dependent manner
- EC50 [3]: 579 ± 139 nM
- mean total brain level [4]: 0.539 nmol/g
- Kp at 5 min ([4]; mouse, brain/plasma, read-out: mean brain/plasma ratio): 0.17

— US8063079B2, “Cyclopropyl compounds” (Eli Lilly and Company, priority 2008, dated 2011)
